Laboratory results as given in ChEMBL document CHEMBL1129270, “Aza-peptide analogs as potent human immunodeficiency virus type-1 protease inhibitors with oral bioavailability” (J Med Chem, 1996).

Experiments:
[1] = Plasma Concentration after 120 min of oral administration to mice; assay type: ADME, organism-based; conditions: mouse
[2] = Plasma Concentration after 90 min of oral administration to mice; assay type: ADME, organism-based; conditions: mouse
[3] = biological target: Human immunodeficiency virus type 1 protease (Human immunodeficiency virus 1) (UniProt Q72874); assay: In vivo antiviral activity (IC50) against HIV-1 protease.; assay type: organism-based
[4] = biological target: Human immunodeficiency virus type 1 protease (Human immunodeficiency virus 1) (UniProt Q72874); assay: In vivo for antiviral activity (ED90) against HIV-1 protease.; assay type: organism-based
Mus musculus (mouse) = assay: Plasma Concentration after 60 min of oral administration to mice
[5] = Plasma Concentration after 30 min of oral administration to mice; assay type: ADME, organism-based; conditions: mouse
[6] = Compound was tested in vivo for antiviral activity (C120/ED50) against HIV Protease.; assay type: functional

| SMILES | concentration at 2 h [1] [nM] | concentration at 1.5 h [2] [nM] | ED50 [3] [µM] | ED90 [4] [µM] | concentration at 1 h (Mus musculus (mouse)) [nM] | concentration at 0.5 h [5] [nM] | C120/ED50 [6] |
| --- | --- | --- | --- | --- | --- | --- | --- |
| C=CCOC(=O)NC(C(=O)N[C@@H](Cc1ccccc1)[C@H](O)CN(CC1CCCCC1)NC(=O)C(NC(=O)OCC=C)C(C)C)C(C)C (some centres undefined) | 1000 | 900 | 0.083 | 1 | 1200 | 800 | 12 |
| CCOC(=O)NC(C(=O)N[C@@H](Cc1ccccc1)[C@H](O)CN(CC1CCCCC1)NC(=O)C(NC(=O)OCCOC)C(C)C)C(C)C (some centres undefined) | 1500 | 1000 | 0.015 | 0.1 | 2200 | 1000 | 100 |
| CCOC(=O)NC(C(=O)N[C@@H](Cc1ccccc1)[C@H](O)CN(CC1CCCCC1)NC(=O)C(NC(=O)OC)C(C)C)C(C)C (some centres undefined) | 1400 | 1200 | 0.072 | 1 | 400 | 3200 | 19 |
| COC(=O)NC(C(=O)NN(Cc1ccc(OC)cc1)C[C@H](O)[C@H](Cc1ccccc1)NC(=O)[C@H](CC(N)=O)NC(=O)c1ccc2ccccc2n1)C(C)C (some centres undefined) | – | – | 0.118 | 1 | – | – | – |
| COC(=O)N[C@H](C(=O)N[C@@H](Cc1ccccc1)[C@H](O)CN(CC1CCCCC1)NC(=O)[C@@H](NC(C)=O)C(C)C)C(C)C | – | – | 0.3 | 1 | – | – | – |
| COC(=O)N[C@H](C(=O)N[C@@H](Cc1ccccc1)C(O)CN(Cc1cccs1)NC(=O)[C@@H](NC(=O)OC)C(C)C)C(C)C (some centres undefined) | – | – | 0.017 | 0.1 | – | – | – |
| CCOC(=O)NC(C(=O)NN(CC1CCCCC1)C[C@H](O)[C@H](Cc1ccccc1)NC(=O)[C@H](CC(N)=O)NC(=O)c1ccc2ccccc2n1)C(C)C (some centres undefined) | – | – | 0.0094 | 0.03 | – | – | – |
| COC(=O)N[C@H](C(=O)N[C@@H](Cc1ccccc1)C(O)CN(Cc1ccc(C)cc1)NC(=O)[C@@H](NC(=O)OC)C(C)C)C(C)C (some centres undefined) | < 200 | < 200 | 0.0062 | 0.03 | < 200 | < 200 | – |
| COC(=O)N[C@H](C(=O)N[C@@H](Cc1ccccc1)C(O)CN(Cc1ccc(OC)cc1)NC(=O)[C@@H](NC(=O)OC)C(C)C)C(C)C (some centres undefined) | < 200 | < 200 | 0.009 | 0.03 | – | < 200 | – |
| COC(=O)NC(C(=O)NN(CC(C)C)C[C@H](O)[C@H](Cc1ccccc1)NC(=O)[C@H](CC(N)=O)NC(=O)c1ccc2ccccc2n1)C(C)C (some centres undefined) | – | – | 0.063 | 0.3 | – | – | – |
| CCOC(=O)NC(C(=O)NN(CC1CCCCC1)C[C@@H](O)[C@H](Cc1ccccc1)NC(=O)C(NC(=O)OCCOC)C(C)C)C(C)C (some centres undefined) | < 200 | < 200 | 0.024 | 0.1 | < 200 | < 200 | – |
| COC(=O)N[C@H](C(=O)N[C@@H](Cc1ccccc1)C(O)CN(Cc1ccc(O)cc1)NC(=O)[C@@H](NC(=O)OC)C(C)C)C(C)C (some centres undefined) | – | – | 0.15 | 1 | – | – | – |
| CCOC(=O)NC(C(=O)NN(CC1CCCCC1)C[C@@H](O)[C@H](Cc1ccccc1)NC(=O)C(NC(=O)OC)C(C)C)C(C)C (some centres undefined) | 6000 | 5800 | 0.029 | 0.1 | 2200 | 3800 | 207 |
| COC(=O)N[C@H](C(=O)N[C@@H](Cc1ccccc1)C(O)CN(Cc1ccc(C#N)cc1)NC(=O)[C@@H](NC(=O)OC)C(C)C)C(C)C (some centres undefined) | – | – | 0.068 | 1 | – | – | – |
| COc1ccc(CN(C[C@H](O)[C@H](Cc2ccccc2)NC(=O)[C@H](CC(N)=O)NC(=O)c2ccc3ccccc3n2)NC(=O)C(NC(=O)OCc2ccccc2)C(C)C)cc1 (some centres undefined) | – | – | 0.015 | 0.03 | – | – | – |
| COC(=O)N[C@H](C(=O)N[C@@H](Cc1ccccc1)C(O)CN(Cc1ccc(C(F)(F)F)cc1)NC(=O)[C@@H](NC(=O)OC)C(C)C)C(C)C (some centres undefined) | – | – | 0.017 | 0.1 | – | – | – |
| COCCOC(=O)NC(C(=O)NC(Cc1ccccc1)C(O)CN(CC1CCCCC1)NC(=O)C(NC(=O)OC)C(C)C)C(C)C (centres undefined) | < 500 | < 500 | 0.014 | 0.1 | < 500 | < 500 | – |
| CC(C)(C)NC(=O)[C@@H]1C[C@@H]2CCCC[C@@H]2CN1C[C@@H](O)[C@H](Cc1ccccc1)NC(=O)[C@H](CC(N)=O)NC(=O)c1ccc2ccccc2n1 | – | – | 0.0045 | 0.01 | – | – | – |
| COC(=O)N[C@H](C(=O)N[C@@H](Cc1ccccc1)C(O)CN(Cc1ccc(OC)c(OC)c1OC)NC(=O)[C@@H](NC(=O)OC)C(C)C)C(C)C (some centres undefined) | – | – | 0.028 | 0.1 | – | – | – |
| COCCOCCOC(=O)NC(C(=O)N[C@@H](Cc1ccccc1)[C@H](O)CN(CC1CCCCC1)NC(=O)C(NC(=O)OCCOCCOC)C(C)C)C(C)C (some centres undefined) | – | – | 0.041 | 10 | – | – | – |
| COC(=O)N[C@H](C(=O)N[C@@H](Cc1ccccc1)C(O)CN(Cc1ccc(F)cc1)NC(=O)[C@@H](NC(=O)OC)C(C)C)C(C)C (some centres undefined) | – | – | 0.049 | 1 | – | – | – |
| CCOC(=O)NC(C(=O)N[C@@H](Cc1ccccc1)[C@H](O)CN(CC1CCCCC1)NC(=O)C(NC(=O)OCC)C(C)C)C(C)C (some centres undefined) | 8700 | 7800 | 0.055 | 1 | 6700 | 6700 | 158 |
| COC(=O)N[C@H](C(=O)N[C@@H](Cc1ccccc1)C(O)CN(CC(C)C)NC(=O)[C@@H](NC(=O)OC)C(C)C)C(C)C (some centres undefined) | – | – | 0.023 | 1 | – | – | – |
| COC(=O)NC(C(=O)NN(CC1CCCCC1)C[C@H](O)[C@H](Cc1ccccc1)NC(=O)[C@H](CC(N)=O)NC(=O)c1ccc2ccccc2n1)C(C)C (some centres undefined) | – | – | 0.018 | 0.1 | – | – | – |
| CC(C)C(NC(=O)OCc1ccccc1)C(=O)NN(CC1CCCCC1)C[C@H](O)[C@H](Cc1ccccc1)NC(=O)[C@H](CC(N)=O)NC(=O)c1ccc2ccccc2n1 (some centres undefined) | 1100 | 800 | 0.0098 | 0.03 | 200 | 300 | 73 |
| COCCOC(=O)NC(C(=O)N[C@@H](Cc1ccccc1)[C@H](O)CN(CC1CCCCC1)NC(=O)C(NC(=O)OCCOC)C(C)C)C(C)C (some centres undefined) | < 500 | < 500 | 0.079 | 0.3 | 1100 | 2700 | – |
| COCCOC(=O)NC(C(=O)NN(CC1CCCCC1)C[C@@H](O)[C@H](Cc1ccccc1)NC(=O)C(NC(=O)OC)C(C)C)C(C)C (some centres undefined) | 3100 | 3000 | 0.028 | 0.1 | 2800 | 1000 | 111 |
| COC(=O)N[C@H](C(=O)N[C@@H](Cc1ccccc1)C(O)CN(CCC(C)C)NC(=O)[C@@H](NC(=O)OC)C(C)C)C(C)C (some centres undefined) | 300 | 400 | 0.0027 | 0.03 | 600 | < 200 | 111 |
| CC(C)CN(C[C@H](O)[C@H](Cc1ccccc1)NC(=O)[C@H](CC(N)=O)NC(=O)c1ccc2ccccc2n1)NC(=O)C(NC(=O)OCc1ccccc1)C(C)C (some centres undefined) | – | – | 0.012 | 0.03 | – | – | – |
| COC(=O)N[C@H](C(=O)N[C@@H](Cc1ccccc1)C(O)CN(CC1CCCCC1)NC(=O)[C@@H](NC(=O)OC)C(C)C)C(C)C (some centres undefined) | – | – | 0.018 | 0.1 | – | – | – |
